Experimental data: patent US8889878B2, “Haloalky-substituted amides as insecticides and acaricides” (Bayer CropScience AG, priority 2009, dated 2014)

What was measured:
[1] = system: green peach aphid (Myzus persicae); experiment: Myzus test (MYZUPE spray treatment), Example 17; assay type: in vivo; conditions: china cabbage leaf discs sprayed, after 6 days
Method: Myzus Test (MYZUPE Spray Treatment)
• Solvent: 78 parts by weight of acetone • 1.5 parts by weight of dimethylformamide • Emulsifier: 0.5 part by weight of alkylaryl polyglycol ether
To prepare an appropriate active ingredient formulation, 1 part by weight of active ingredient is mixed with the stated amounts of solvent and emulsifier, and the concentrate is diluted with emulsifier-containing water to the desired concentration. Leaf discs from china cabbage (Brassica pekinensis) infested by all stages of the green peach aphid (Myzus persicae) are sprayed with an active ingredient formulation of the desired concentration.
After 6 days, the efficacy in % is determined. 100% means that all aphids were killed; 0% means that no aphids were killed.

[2] = logP by HPLC on reverse-phase column (EEC Directive 79/831 Annex V.A8); assay type: physicochemical
Method: The logP values reported in the above Tables and Preparation Examples were determined according to EEC Directive 79/831 Annex V.A8 by HPLC (High Performance Liquid Chromatography) on a reverse-phase column (C18). Temperature 43° C.

[3] = system: armyworm (Spodoptera frugiperda); experiment: Spodoptera frugiperda test (SPODFR spray treatment), Example 15; assay type: in vivo; conditions: maize leaf discs sprayed, after 7 days
Method: Spodoptera frugiperda Test (SPODFR Spray Treatment)
(§1) • Solvent: 78.0 parts by weight of acetone • 1.5 parts by weight of dimethylformamide • Emulsifier: 0.5 part by weight of alkylaryl polyglycol ether
(§2) To prepare an appropriate active ingredient formulation, 1 part by weight of active ingredient is mixed with the stated amounts of solvent and emulsifier, and the concentrate is diluted with emulsifier-containing water to the desired concentration. Leaf discs from maize (Zea mays) are sprayed with an active ingredient formulation of the desired concentration and, after drying, populated with caterpillars of the armyworm (Spodoptera frugiperda).
After 7 days, the efficacy in % is determined. 100% means that all caterpillars were killed; 0% means that no caterpillars were killed.

[4] = system: mustard beetle (Phaedon cochleariae); experiment: Phaedon test (PHAECO spray treatment), Example 7; assay type: in vivo; conditions: application rate 20 g/ha, china cabbage leaf discs sprayed, after 7 days
Method: Phaedon Test (PHAECO Spray Treatment)
as §1
as §2, with “an” for “an appropriate”, “china cabbage (Brassica pekinensis)” for “maize (Zea mays)”, “larvae” for “caterpillars”, “mustard beetle (Phaedon cochleariae).” for “armyworm (Spodoptera frugiperda).”
After 7 days, the efficacy in % is determined. 100% means that all beetle larvae were killed; 0% means that no beetle larvae were killed.

[5] = HPLC-MS, HPLC on reverse-phase column
[6] = HPLC, C18 reverse phase, 43° C., acidic range pH 2.7, calibration with alkan-2-ones

SMILES	efficacy in % ([1]; application rate 100 g/ha) [%]	logP ([2]; HPLC-MS)	efficacy in % ([3]; application rate 100 g/ha) [%]	other results
CC(NC(=O)c1ccc(C=CC(=O)NC(c2cccc(C(F)(F)F)c2)C(F)(F)F)cc1Cl)c1nccs1 (mixture of isomers) [Ia-187]	80	HPLC-MS: logP = 3.4; mass		
CC(C)ONC(=O)c1ccc(/C=C/C(=O)NC(c2cccc(C(F)(F)F)c2)C(F)(F)F)cc1Cl (racemic) [Ia-194]	90	HPLC-MS: logP = 3.29; mass		
CC(C)(C#N)NC(=O)c1ccc(/C=C/C(=O)NC(c2cccc(C(F)(F)F)c2)C(F)(F)F)cc1Cl (racemic) [Ia-195]	100	HPLC-MS: logP = 3.34; mass	100	
O=C(/C=C/c1ccc(C(=O)Nc2ncccn2)c(Cl)c1)NC(c1cccc(C(F)(F)F)c1)C(F)(F)F (racemic) [Ia-197]	90	HPLC-MS: logP = 2.95; mass		
CCn1c(C(=O)NC(c2cccc(C(F)(F)F)c2)C(F)(F)F)cc2cc(C(=O)NC3CC3)c(Cl)cc21 (racemic) [Ic-26]	100		100	
CCNC(=O)c1ccc(/C=C/C(=O)NC(c2cccc(C(F)(F)F)c2)C(F)(F)F)cc1C(F)(F)F (centres unmarked) [Ia-64]		HPLC-MS: logP = 3.18; mass		efficacy in % [4]: 100%; efficacy in % ([3]; application rate 500 g/ha): 83%
C#CCNC(=O)c1ccc(/C=C/C(=O)NC(c2cccc(C(F)(F)F)c2)C(F)(F)F)cc1Br (centres unmarked) [Ia-105]		HPLC-MS: logP = 3.09 mass		efficacy in % [4]: 100%
O=C(/C=C/c1ccc(C(=O)NC2CCCNC2=O)c(Cl)c1)NC(c1cccc(C(F)(F)F)c1)C(F)(F)F (centres unmarked) [Ia-106]		HPLC-MS: logP = 2.61 mass		efficacy in % [4]: 100%
O=C(/C=C/c1ccc(C(=O)NCC(=O)NCC(F)(F)F)c(Cl)c1)NC(c1cccc(C(F)(F)F)c1)C(F)(F)F (centres unmarked) [Ia-107]		HPLC-MS: logP = 2.99 mass		efficacy in % [4]: 100%
COC(=O)NNC(=O)c1ccc(/C=C/C(=O)NC(c2cccc(C(F)(F)F)c2)C(F)(F)F)cc1Cl (centres unmarked) [Ia-109]		HPLC-MS: logP = 2.72 mass		efficacy in % [4]: 100%
CC(F)(F)CNC(=O)c1ccc(/C=C/C(=O)NC(c2cccc(C(F)(F)F)c2)C(F)(F)F)cc1Cl (centres unmarked) [Ia-111]		HPLC-MS: logP = 3.37 mass		efficacy in % [4]: 100%
CN(C)NC(=O)c1ccc(/C=C/C(=O)NC(c2cccc(C(F)(F)F)c2)C(F)(F)F)cc1C(F)(F)F (centres unmarked) [Ia-131]	100	HPLC-MS: logP = 3.05; mass	100	
CC(C#N)NC(=O)c1ccc(/C=C/C(=O)NC(c2cccc(C(F)(F)F)c2)C(F)(F)F)cc1Cl (centres unmarked) [Ia-160]	100	HPLC-MS: logP = 3.23; mass		
O=C(/C=C/c1ccc(C(=O)Nc2ccc(Cl)cn2)c(Cl)c1)NC(c1cccc(C(F)(F)F)c1)C(F)(F)F (centres unmarked) [Ia-168]	80	HPLC-MS: logP = 4.28; mass	100	
O=C(/C=C/c1ccc(C(=O)NCc2ccco2)c(C(F)(F)F)c1)NC(c1cccc(C(F)(F)F)c1)C(F)(F)F (centres unmarked) [Ia-169]	100	HPLC-MS: logP = 3.63; mass		
COC(=O)N(C)NC(=O)c1ccc(/C=C/C(=O)NC(c2cccc(C(F)(F)F)c2)C(F)(F)F)cc1C(F)(F)F (centres unmarked) [Ia-170]	100	HPLC-MS: logP = 3.23; mass	83	
CC(C)NC(=O)c1ccc(/C=C/C(=O)NC(c2cccc(C(F)(F)F)c2)C(F)(F)F)cc1Br (centres unmarked) [Ia-174]	100	HPLC-MS: logP = 3.48; mass		
O=C(/C=C/c1ccc(C(=O)NC(CF)CF)c(Br)c1)NC(c1cccc(C(F)(F)F)c1)C(F)(F)F (centres unmarked) [Ia-175]	100	HPLC-MS: logP = 3.35; mass	83	

SMILES	efficacy in % ([1]; application rate 100 g/ha) [%]	logP ([2]; HPLC-MS)	efficacy in % ([3]; application rate 100 g/ha) [%]	other results
O=C(/C=C/c1ccc(C(=O)NC2CCC2)c(Br)c1)NC(c1cccc(C(F)(F)F)c1)C(F)(F)F (centres unmarked) [Ia-179]	90	HPLC-MS: logP = 3.61; mass	83	
O=C(/C=C/c1ccc(C(=O)NCC2CC2)c(Br)c1)NC(c1cccc(C(F)(F)F)c1)C(F)(F)F (centres unmarked) [Ia-180]	90	HPLC-MS: logP = 3.55; mass		
O=C(/C=C/c1ccc(C(=O)Nc2ccncn2)c(Cl)c1)NC(c1cccc(C(F)(F)F)c1)C(F)(F)F (centres unmarked) [Ia-184]	100	HPLC-MS: logP = 3.22; mass		
CN(C(=O)c1ccc(/C=C/C(=O)NC(c2cccc(C(F)(F)F)c2)C(F)(F)F)cc1C(F)(F)F)c1ccccn1 (centres unmarked) [Ia-239]	90	HPLC-MS: logP = 2.07; mass	100	
CCC(=O)NCc1ccc(/C=C/C(=O)NC(c2ccc(F)c(Cl)c2)C(F)(F)F)cc1C(F)(F)F (centres unmarked) [Ia-251]	80	HPLC-MS: logP = 3.47; mass	100	
CC(=O)N(Cc1ccccn1)Cc1ccc(/C=C/C(=O)NC(c2cccc(C(F)(F)F)c2)C(F)(F)F)cc1F (centres unmarked) [Ia-252]	100	HPLC-MS: logP = 2.72; mass	100	
CC(=O)N(Cc1ccc(/C=C/C(=O)NC(c2cccc(C(F)(F)F)c2)C(F)(F)F)cc1)Cc1ccccn1 (centres unmarked) [Ia-254]	80	HPLC-MS: logP = 2.65; mass		
O=C(/C=C/c1ccc(C(=O)NC2CC2)c(C(F)(F)F)c1)NC(c1cccc(SC(F)(F)F)c1)C(F)(F)F (centres unmarked) [Ia-256]	100	HPLC-MS: logP = 3.51; mass	100	
CCC(=O)NCc1ccc(/C=C/C(=O)NC(c2cccc(C(F)(F)F)c2)C(F)(F)F)cc1F (centres unmarked) [Ia-276]	100		100	logP [2, 5]: HPLC-MS: logP = 3.12; mass
CCC(=O)NCc1ccc(/C=C/C(=O)NC(c2ccc(F)c(Cl)c2)C(F)(F)F)cc1F (centres unmarked) [Ia-277]	100		100	logP [2, 5]: HPLC-MS: logP = 3.06; mass
O=C(/C=C/c1ccc(C(=O)NC2CC2)c(C(F)(F)F)c1)NC(c1ccc(F)c(Cl)c1)C(F)(F)F (centres unmarked) [Ia-279]	100		100	logP [2, 5]: HPLC-MS: logP = 3.33; mass
O=C(/C=C/c1ccc(C(=O)NC2CC2)c(C(F)(F)F)c1)NC(c1ccc(F)c(C(F)(F)F)c1)C(F)(F)F (centres unmarked) [Ia-280]	100		100	logP [2, 5]: HPLC-MS: logP = 3.46; mass
CCC(=O)NCc1ccc(/C=C/C(=O)NC(c2ccc(F)c(C(F)(F)F)c2)C(F)(F)F)cc1 (centres unmarked) [Ia-282]	90		100	logP [2, 5]: HPLC-MS: logP = 3.11; mass
O=C(NCc1ccc2oc(C(=O)NC(c3cccc(C(F)(F)F)c3)C(F)(F)F)cc2c1)c1ccccn1 (centres unmarked) [Ic-12]				efficacy in % ([1]; application rate 500 g/ha): 80%; logP [2, 6]: HPLC-MS: logP = 3.62; mass
O=C(NC(c1cc(Cl)cc(C(F)(F)F)c1)C(F)(F)F)c1cc2cc(Cl)c(C(=O)NC3CC3)cc2[nH]1 (centres unmarked) [Ic-20]				efficacy in % [4]: 100%; logP [2, 6]: HPLC-MS: logP = 3.47; mass
O=C(NC(c1ccc(Cl)c(Cl)c1)C(F)(F)F)c1cc2cc(Cl)c(C(=O)NC3CC3)cc2[nH]1 (centres unmarked) [Ic-21]				efficacy in % [4]: 100%; logP [2, 6]: HPLC-MS: logP = 3.28; mass
C/C(=C\C(=O)NC(c1cccc(C(F)(F)F)c1)C(F)(F)F)c1ccc(C(=O)NC(C)C)c(C(F)(F)F)c1 (centres unmarked) [Id-4]	90			logP [2, 6]: HPLC-MS: logP = 3.75; mass
